Counter-ions that a name gives are not always drawn. Where only a bound is given, the exact number is not on record here.

For the test, the target named is T1, TBK1 (Homo sapiens, UniProt Q9UHD2).
T1 construct: All protein kinases were of human origin and encoded full length proteins, unless indicated otherwise; His6; made in house; host or cells: insect Sf21 cells
T1 sequence (Q9UHD2 1-729): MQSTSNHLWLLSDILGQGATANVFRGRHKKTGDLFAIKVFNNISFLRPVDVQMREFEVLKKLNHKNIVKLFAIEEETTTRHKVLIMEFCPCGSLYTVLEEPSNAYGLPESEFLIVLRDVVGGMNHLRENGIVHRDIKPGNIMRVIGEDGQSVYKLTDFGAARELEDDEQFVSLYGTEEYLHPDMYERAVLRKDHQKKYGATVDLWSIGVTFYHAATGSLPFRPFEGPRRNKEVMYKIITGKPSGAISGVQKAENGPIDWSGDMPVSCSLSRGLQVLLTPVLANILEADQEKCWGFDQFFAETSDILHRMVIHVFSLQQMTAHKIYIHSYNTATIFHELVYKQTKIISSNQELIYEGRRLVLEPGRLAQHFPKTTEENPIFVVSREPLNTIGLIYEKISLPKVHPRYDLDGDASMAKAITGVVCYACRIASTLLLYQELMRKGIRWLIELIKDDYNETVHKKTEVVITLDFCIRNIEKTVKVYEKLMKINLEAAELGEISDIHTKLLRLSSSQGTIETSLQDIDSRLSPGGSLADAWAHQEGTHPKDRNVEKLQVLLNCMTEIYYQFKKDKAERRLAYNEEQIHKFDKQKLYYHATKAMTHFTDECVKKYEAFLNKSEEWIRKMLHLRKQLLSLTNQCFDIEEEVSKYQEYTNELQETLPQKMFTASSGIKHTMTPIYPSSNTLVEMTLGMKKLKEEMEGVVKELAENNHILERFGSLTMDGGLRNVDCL
Kind of test: TBK1 protein kinase assay ([γ-33P]ATP, P81 filterplates). Format: biochemical. Particulars: 50 μM ATP; read-out: Potency (TBK1 IC50 potency score). A digest of the protocol:
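Human TBK1 assayed for 30 min with peptide substrate (300 μM), 50 μM [γ-33P]ATP and 10 mM magnesium acetate in 50 mM Tris/HCl pH 7.5, 0.1 mM EGTA, 0.1% 2-mercaptoethanol. Stopped with orthophosphoric acid and counted on P81 filters. IC50 from 10 compound concentrations.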
Usually IC50 stands for the point on the concentration scale where inhibition reaches its midpoint. `Cc1ccccc1Nc1ncc(C2CC2)c(NCCCNC(=O)c2cccs2)n1` [Example 59, Thiophene-2-carboxylic acid [3-(5-cyclopropyl-2-o-tolylamino-pyrimidin-4-ylamino)-propyl]-amide]: the IC50 was in the range of 1 to 10 µM.

`Cc1nc2cc(Nc3ncc(C4CC4)c(NCCCNC(=O)c4cccs4)n3)ccc2s1` [Example 60, Thiophene-2-carboxylic acid {3-[5-cyclopropyl-2-(2-methyl-benzothiazol-5-ylamino)-pyrimidin-4-ylamino]-propyl}-amide]: the IC50 fell in the range of 0.1 to 1 µM.

With `N#Cc1cccc(Nc2ncc(C3CC3)c(NCCCNC(=O)c3cccs3)n2)c1` [Example 61, Thiophene-2-carboxylic acid {3-[2-(3-cyano-phenylamino)-5-cyclopropyl-pyrimidin-4-ylamino]-propyl}-amide], the IC50 was in the range of 0.1 to 1 µM.

As for `O=C(NCCCNc1nc(Nc2ccc3[nH]c(C(F)(F)F)nc3c2)ncc1C1CC1)c1cccs1` [Example 62, Thiophene-2-carboxylic acid {3-[5-cyclopropyl-2-(2-trifluoromethyl-1H-benzimidazol-5-ylamino)-pyrimidin-4-ylamino]-propyl}-amide], the IC50 is 1 to 10 µM.

As for `O=C(NCCCNc1nc(Nc2ccncc2)ncc1C1CC1)c1cccs1` [Example 63, Thiophene-2-carboxylic acid {3-[5-cyclopropyl-2-(pyridin-4-ylamino)-pyrimidin-4-ylamino]-propyl}-amide], the IC50 was in the range of 0.1 to 1 µM.

As to `O=C(NCCCNc1nc(Nc2cncc(F)c2)ncc1C1CC1)C1CCC1` [Example 64, Cyclobutanecarboxylic acid {3-[5-cyclopropyl-2-(5-fluoro-pyridin-3-ylamino)-pyrimidin-4-ylamino]-propyl}-amide], the IC50 was below 0.1 µM.

On to `O=C(NCCCNc1nc(Nc2cccnc2)ncc1C1CC1)C1CCC1` [Example 65, Cyclobutanecarboxylic acid {3-[5-cyclopropyl-2-(pyridin-3-ylamino)-pyrimidin-4-ylamino]-propyl}-amide], for which the IC50 is below 0.1 µM.

Regarding `O=C(NCCCNc1nc(Nc2cccnc2)ncc1C1CC1)C1CCCC1` [Example 66, Cyclopentanecarboxylic acid {3-[5-cyclopropyl-2-(pyridin-3-ylamino)-pyrimidin-4-ylamino]-propyl}-amide], the IC50 is below 0.1 µM.

Take `CC(=O)Nc1cccc(Nc2ncc(C3CC3)c(NCCCNC(=O)C3CCCC3)n2)c1` [Example 67, Cyclopentanecarboxylic acid {3-[2-(3-acetylamino-phenylamino)-5-cyclopropyl-pyrimidin-4-ylamino]-propyl}-amide]: the IC50 is below 0.1 µM.

In the case of `CC(=O)Nc1cccc(Nc2ncc(C3CC3)c(NCCCNC(=O)C3CCC3)n2)c1` [Example 68, Cyclobutanecarboxylic acid {3-[2-(3-acetylamino-phenylamino)-5-cyclopropyl-pyrimidin-4-ylamino]-propyl}-amide], the IC50 was below 0.1 µM.

Regarding `Nc1cccc(Nc2ncc(C3CC3)c(NCCCNC(=O)c3cccs3)n2)c1` [Example 69, Thiophene-2-carboxylic acid {3-[2-(3-amino-phenylamino)-5-cyclopropyl-pyrimidin-4-ylamino]-propyl}-amide], the IC50 is below 0.1 µM.

As for `O=C(NCCCNc1nc(Nc2cccc(CO)c2)ncc1C1CC1)C1CCC1` [Example 70, Cyclobutanecarboxylic acid {3-[5-cyclopropyl-2-(3-hydroxymethyl-phenylamino)-pyrimidin-4-ylamino]-propyl}-amide. xHCl salt], the IC50 is below 0.1 µM.

As for `O=C(O)c1cccc(Nc2ncc(C3CC3)c(NCCCNC(=O)C3CCC3)n2)c1` [Example 71, 3-{4-[3-(Cyclobutanecarbonyl-amino)-propylamino]-5-cyclopropyl-pyrimidin-2-ylamino}-benzoic acid hydrochloride salt], the IC50 is below 0.1 µM.

Regarding `O=C(NCCCNc1nc(Nc2cc(F)cc(F)c2)ncc1C1CC1)C1CCC1` [Example 72, Cyclobutanecarboxylic acid {3-[5-cyclopropyl-2-(3,5-difluoro-phenylamino)-pyrimidin-4-ylamino]-propyl}-amide. Hydrochloride salt], the IC50 is below 0.1 µM.

For the compound `COCCNC(=O)c1cccc(Nc2ncc(C3CC3)c(NCCCNC(=O)C3CCC3)n2)c1` [Example 73, 3-{4-[3-(Cyclobutanecarbonyl-amino)-propylamino]-5-cyclopropyl-pyrimidin-2-ylamino}-N-(2-methoxy-ethyl)-benzamide], the IC50 is below 0.1 µM.

`O=C(NCCc1c[nH]cn1)c1cccc(Nc2ncc(C3CC3)c(NCCCNC(=O)C3CCC3)n2)c1` [Example 74, 3-{4-[3-(Cyclobutanecarbonyl-amino)-propylamino]-5-cyclopropyl-pyrimidin-2-ylamino}-N-[2-(1H-imidazol-4-yl)-ethyl]-benzamide]: the IC50 was below 0.1 µM.

Regarding `O=C(NCCCNc1nc(Nc2cccc(C(=O)N3CCOCC3)c2)ncc1C1CC1)C1CCC1` [Example 75, Cyclobutanecarboxylic acid (3-{5-cyclopropyl-2-[3-(morpholine-4-carbonyl)-phenylamino]-pyrimidin-4-ylamino}-propyl)-amide], the IC50 is below 0.1 µM.

On to `CN(C)CCN(C)C(=O)c1cccc(Nc2ncc(C3CC3)c(NCCCNC(=O)C3CCC3)n2)c1` [Example 76, 3-{4-[3-(Cyclobutanecarbonyl-amino)-propylamino]-5-cyclopropyl-pyrimidin-2-ylamino}-N-(2-dimethylamino-ethyl)-N-methyl-benzamide], for which the IC50 is below 0.1 µM.

For `CN1CCN(C(=O)c2cccc(Nc3ncc(C4CC4)c(NCCCNC(=O)C4CCC4)n3)c2)CC1` [Example 77, Cyclobutanecarboxylic acid (3-{5-cyclopropyl-2-[3-(4-methyl-piperazine-1-carbonyl)-phenylamino]-pyrimidin-4-ylamino}-propyl)-amide], the IC50 is below 0.1 µM.

Regarding `CN1CCC(CNC(=O)c2cccc(Nc3ncc(C4CC4)c(NCCCNC(=O)C4CCC4)n3)c2)CC1` [Example 78, 3-{4-[3-(Cyclobutanecarbonyl-amino)-propylamino]-5-cyclopropyl-pyrimidin-2-ylamino}-N-(1-methyl-piperidin-4-ylmethyl)-benzamide], the half-maximal inhibitory concentration (IC50) is below 0.1 µM.

Take `CN(C)CCCN(C)C(=O)c1cccc(Nc2ncc(C3CC3)c(NCCCNC(=O)C3CCC3)n2)c1` [Example 79, 3-{4-[3-(Cyclobutanecarbonyl-amino)-propylamino]-5-cyclopropyl-pyrimidin-2-ylamino}-N-(3-dimethylamino-propyl)-N-methyl-benzamide]: the IC50 was below 0.1 µM.

`CN(CCN1CCOCC1)C(=O)c1cccc(Nc2ncc(C3CC3)c(NCCCNC(=O)C3CCC3)n2)c1` [Example 80, 3-{4-[3-(Cyclobutanecarbonyl-amino)-propylamino]-5-cyclopropyl-pyrimidin-2-ylamino}-N-methyl-N-(2-morpholin-4-yl-ethyl)-benzamide]: the IC50 is below 0.1 µM.

Regarding `CN(C)C1CCN(C(=O)c2cccc(Nc3ncc(C4CC4)c(NCCCNC(=O)C4CCC4)n3)c2)CC1` [Example 81, Cyclobutanecarboxylic acid (3-{5-cyclopropyl-2-[3-(4-dimethylamino-piperidine-1-carbonyl)-phenylamino]-pyrimidin-4-ylamino}-propyl)-amide], the IC50 is below 0.1 µM.

As for `CN1CCC(NC(=O)c2cccc(Nc3ncc(C4CC4)c(NCCCNC(=O)C4CCC4)n3)c2)CC1` [Example 82, 3-{4-[3-(Cyclobutanecarbonyl-amino)-propylamino]-5-cyclopropyl-pyrimidin-2-ylamino}-N-(1-methyl-piperidin-4-yl)-benzamide], the IC50 was 0.1 to 1 µM.

As to `O=C(NCCCNc1nc(Nc2cccc(Cn3cncn3)c2)ncc1C1CC1)C1CCC1` [Example 83, Cyclobutanecarboxylic acid {3-[5-cyclopropyl-2-(3-1,2,4-triazol-1-ylmethyl-phenylamino)-pyrimidin-4-ylamino]-propyl}-amide], the IC50 is below 0.1 µM.

With `Cn1ccc(-c2cccc(Nc3ncc(C4CC4)c(NCCCNC(=O)C4CCC4)n3)c2)n1` [Example 84, Cyclobutanecarboxylic acid (3-{5-cyclopropyl-2-[3-(1-methyl-1H-pyrazol-3-yl)-phenylamino]-pyrimidin-4-ylamino}-propyl)-amide], the IC50 was below 0.1 µM.

Take `O=C(NCCCNc1nc(Nc2ccc(F)c(F)c2)ncc1C1CC1)C1CCC1` [Example 85, Cyclobutanecarboxylic acid {3-[5-cyclopropyl-2-(3,4-difluoro-phenylamino)-pyrimidin-4-ylamino]-propyl}-amide]: the IC50 is below 0.1 µM.

For `O=C(NCCCNc1nc(Nc2cccc(-n3cncn3)c2)ncc1C1CC1)C1CCC1` [Example 86, Cyclobutanecarboxylic acid (3-{5-cyclopropyl-2-[3-(2H-1,2,4-triazol-1-yl)-phenylamino]-pyrimidin-4-ylamino}-propyl)-amide], the IC50 is below 0.1 µM.
